Experimental data taken from patent US8183262B2, “Pyridine derivatives as mGluR2 antagonists” (Hoffmann-La Roche Inc., priority 2007, dated 2012).
pKi: −log10 of the molar value.

Assays:
rat mGlu2 receptor = biological target: T1, rat mGlu2 receptor (Rattus norvegicus, UniProt P31421); assay: [3H]-LY354740 binding on mGlu2 transfected CHO cell membranes; details: inhibition of 10 nM [3H]-LY354740 binding, membranes of CHO cells transfected with rat mGlu2, room temperature, 1 hour
T1 construct: expressed in transfected cells; membranes prepared
Text: [^3H]-LY354740 Binding on mGlu2 Transfected CHO Cell Membranes. Transfection and Cell Culture
cDNA encoding the rat mGlu2 receptor protein in pBluescript II was subcloned into the eukaryotic expression vector pcDNA I-amp from Invitrogen Ltd (Paisley, UK). This vector construct (pcD1mGR2) was co-transfected with a psvNeo plasmid encoding the gene for neomycin resistance, into CHO cells by a modified calcium phosphate method described by Chen & Okayama (1988). The cells were maintained in Dulbecco's Modified Eagle medium with reduced L-glutamine (1 mM final concentration), 36 mg/L L-Proline and 10% dialysed foetal calf serum from Gibco-Invitrogen; the medium was supplemented with 500 microM α-methyl-4-carboxyphenylglycine (MCPG). Selection was made in the presence of G-418 (300 ug/ml final concentration). Clones were identified by reverse transcription of 5 μg total RNA, followed by PCR using mGlu2 receptor specific primers 5′-[…]-3′ and 5′-[…]-3′ in 60 mM Tris HCl (pH 10), 15 mM (NH4)2SO4, 2 mM MgCl2, 25 units/ml Taq Polymerase with 30 cycles annealing at 60° C. for 1 min., extention at 72° C. for 30 s, and 1 min. 95° C. denaturation.
Cells, cultured as above, were harvested and washed three times with cold PBS and frozen at −80° C. The pellet was resuspended in cold 20 mM HEPES-NaOH buffer containing 10 mM EDTA (pH 7.4), and homogenised with a polytron (Kinematica, A G, Littau, Switzerland) for 10 s at 10 000 rpm. After centrifugation for 30 min. at 4° C., the pellet was washed once with cold 20 mM HEPES-NaOH buffer containing 0.1 mM EDTA, (pH 7.4). After a second centrifugation for 30 min. at 4° C. the pellet was resuspended in cold 20 mM HEPES-NaOH buffer containing 0.1 mM EDTA, (pH 7.4). Protein content was measured using the Micro BCA method from Pierce-Perbio (Rockford, Ill., USA) using bovine serum albumin as standard.
After thawing, the membranes were resuspended in cold 50 mM Tris-HCl buffer containing 2 mM MgCl2 (pH 7.4) (binding buffer). The final concentration of the membranes in the assays was 25 μg protein/ml. Inhibition experiments were performed with membranes incubated with 10 nM [^3H]-LY354740 at room temperature, for 1 hour, in presence of various concentrations of the compound to be tested. Following the incubations, membranes were filtered onto Whatmann GF/B glass fiber filters or onto GF/B Unifilter plates and washed 5 times with cold binding buffer. Non specific binding was measured in the presence of 10 μM (2S,2′R,3′R)-2-(2′3′-Dicarboxycyclopropyl)glycine (DCG IV from Tocris, Ellisville, Mo. USA). After transfer of the filters into plastic vials containing 10 ml of Ultima-gold scintillation fluid from Perkin-Elmer (Boston, Mass., USA), the radioactivity was measured by liquid scintillation in a Tri-Carb 2500 TR counter (Packard, Zürich, Switzerland). For 96-Unifilter plates the radioactivity was measured after addition of Microscint 40 scintillation fluid (Perkin Elmer, Boston Mass.) using a TopCount NXT (Packard)
The inhibition curves were fitted with a four parameter logistic equation giving IC50 values, and Hill coefficients.

T1 sequence (P31421 19-872): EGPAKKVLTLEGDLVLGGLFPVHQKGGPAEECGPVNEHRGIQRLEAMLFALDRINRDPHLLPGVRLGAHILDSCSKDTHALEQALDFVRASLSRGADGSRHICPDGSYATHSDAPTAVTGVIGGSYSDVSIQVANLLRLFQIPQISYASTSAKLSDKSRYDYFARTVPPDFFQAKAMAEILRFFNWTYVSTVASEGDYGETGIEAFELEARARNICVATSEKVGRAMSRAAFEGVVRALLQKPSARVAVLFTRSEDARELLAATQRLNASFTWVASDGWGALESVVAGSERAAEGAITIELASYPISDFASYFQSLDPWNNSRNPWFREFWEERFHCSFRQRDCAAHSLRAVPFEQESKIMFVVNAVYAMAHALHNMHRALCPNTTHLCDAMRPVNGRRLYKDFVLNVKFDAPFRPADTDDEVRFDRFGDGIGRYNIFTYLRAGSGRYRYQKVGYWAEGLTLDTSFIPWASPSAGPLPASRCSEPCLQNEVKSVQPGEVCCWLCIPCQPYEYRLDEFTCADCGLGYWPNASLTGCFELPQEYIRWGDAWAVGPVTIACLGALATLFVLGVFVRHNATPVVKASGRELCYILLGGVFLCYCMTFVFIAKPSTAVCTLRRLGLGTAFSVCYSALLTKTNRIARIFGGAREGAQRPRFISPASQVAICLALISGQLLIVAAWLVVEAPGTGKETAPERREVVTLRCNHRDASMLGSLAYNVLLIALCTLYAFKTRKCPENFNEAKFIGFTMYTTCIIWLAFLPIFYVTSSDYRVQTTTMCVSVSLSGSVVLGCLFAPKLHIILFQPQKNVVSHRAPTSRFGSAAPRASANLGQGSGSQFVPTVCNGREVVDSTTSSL

pKi (rat mGlu2 receptor)	melting point [°C]	Structure (SMILES)
7.13	175	FC(F)(F)c1cc(-c2ccc(Cl)cc2)nc(-n2ccnc2)n1 [Example 1, 4-(4-Chloro-phenyl)-2-imidazol-1-yl-6-trifluoromethyl-pyrimidine]
7.55	273	NS(=O)(=O)c1cccc(-c2nc(-c3nc(-c4ccc(Cl)cc4)cc(C(F)(F)F)n3)no2)c1 [Example 2, 3-{3-[4-(4-Chloro-phenyl)-6-trifluoromethyl-pyrimidin-2-yl]-[1,2,4]oxadiazol-5-yl}-benzenesulfonamide]
7.14	162	FC(F)(F)c1ccc(-c2cc(C(F)(F)F)nc(-n3ccnc3)n2)cc1 [Example 3, 2-Imidazol-1-yl-4-trifluoromethyl-6-(4-trifluoromethyl-phenyl)-pyrimidine]
7.15		Nc1ccc(-c2ncn(-c3cc(C(F)(F)F)cc(-c4ccc(C(F)(F)F)cc4)n3)n2)cn1 [Example 277, 5-{1-[4-Trifluoromethyl-6-(4-trifluoromethyl-phenyl)-pyridin-2-yl]-1H-[1,2,4]triazol-3-yl}-pyridin-2-ylamine]
8.52		CC(C)(C)NS(=O)(=O)c1cccc(-c2cn(-c3cc(C(F)(F)F)cc(-c4ccc(C(F)(F)F)cc4)n3)cn2)c1 [Example 280, N-tert-Butyl-3-{1-[4-trifluoromethyl-6-(4-trifluoromethyl-phenyl)-pyridin-2-yl]-1H-imidazol-4-yl}-benzenesulfonamide]
8.05		Cc1cc(-c2ccc(C(F)(F)F)cc2)cc(-c2ccnc(-c3cccc([N+](=O)[O-])c3)n2)n1 [Example 322, 4-[6-Methyl-4-(4-trifluoromethyl-phenyl)-pyridin-2-yl]-2-(3-nitro-phenyl)-pyrimidine]
8.40		Cc1cc(-c2ccc(C(F)(F)F)cc2)cc(-c2ccnc(-c3cccc(NS(C)(=O)=O)c3)n2)n1 [Example 330, N-(3-{4-[6-Methyl-4-(4-trifluoromethyl-phenyl)-pyridin-2-yl]-pyrimidin-2-yl}-phenyl)-methanesulfonamide]
9.00		Cc1cc(-c2ccc(C(F)(F)F)cc2)cc(-c2ccnc(-c3cccc(NS(N)(=O)=O)c3)n2)n1 [Example 338, N-(3-{4-[6-Methyl-4-(4-trifluoromethyl-phenyl)-pyridin-2-yl]-pyrimidin-2-yl}-phenyl)-sulfamide]
9.15		Cc1cc(-c2ccc(C(F)(F)F)cc2)cc(-c2cccc(-c3cccc(S(=O)(=O)O)c3)n2)n1 [Example 345, 3-[6′-Methyl-4′-(4-trifluoromethyl-phenyl)-[2,2′]bipyridinyl-6-yl]-benzenesulfonic acid]
	188	NS(=O)(=O)c1cccc(-c2cccc(-c3nc(-c4ccc(C(F)(F)F)c(OCC(F)(F)F)c4)cc(C(F)(F)F)n3)c2)c1 [Example 447, 3′-{4-[3-(2,2,2-Trifluoro-ethoxy)-4-trifluoromethyl-phenyl]-6-trifluoromethyl-pyrimidin-2-yl}-biphenyl-3-sulfonic acid amide]
	211	NS(=O)(=O)c1cccc(-c2cc(-c3nc(-c4ccc(C(F)(F)F)c(OCC(F)(F)F)c4)cc(C(F)(F)F)n3)ccn2)c1 [Example 448, 3-(4-{4-[3-(2,2,2-Trifluoro-ethoxy)-4-trifluoromethyl-phenyl]-6-trifluoromethyl-pyrimidin-2-yl}-pyridin-2-yl)-benzenesulfonamide]
	244	NS(=O)(=O)c1cccc(-c2cc(-c3nc(-c4cccc(C(F)(F)F)c4)cc(C(F)(F)F)n3)ccn2)c1 [Example 449, 3-{4-[4-Trifluoromethyl-6-(3-trifluoromethyl-phenyl)-pyrimidin-2-yl]-pyridin-2-yl}-benzenesulfonamide]
	210	NS(=O)(=O)c1cccc(-c2cc(-c3nc(-c4ccc(C(F)(F)F)cc4F)cc(C(F)(F)F)n3)ccn2)c1 [Example 450, 3-{4-[4-(2-Fluoro-4-trifluoromethyl-phenyl)-6-trifluoromethyl-pyrimidin-2-yl]-pyridin-2-yl}-benzenesulfonamide]
	228	NS(=O)(=O)c1ccc(-c2cc(-c3nc(-c4ccc(C(F)(F)F)cc4F)cc(C(F)(F)F)n3)ccn2)s1 [Example 451, 5-{4-[4-(2-Fluoro-4-trifluoromethyl-phenyl)-6-trifluoromethyl-pyrimidin-2-yl]-pyridin-2-yl}-thiophene-2-sulfonic acid amide]
	237.5	CCOc1cc(-c2cc(C(F)(F)F)nc(-c3ccnc(-c4ccc(S(N)(=O)=O)s4)c3)n2)ccc1C(F)(F)F [Example 453, 5-{4-[4-(3-Ethoxy-4-trifluoromethyl-phenyl)-6-trifluoromethyl-pyrimidin-2-yl]-pyridin-2-yl}-thiophene-2-sulfonic acid amide]
	188	CCCC(=O)NS(=O)(=O)c1cccc(-c2cccc(-c3cc(-c4ccc(C(F)(F)F)cc4)cc(C)n3)n2)c1 [Example 454, N-Butyryl-3-[6′-methyl-4′-(4-trifluoromethyl-phenyl)-[2,2′]bipyridinyl-6-yl]-benzenesulfonamide]
	190	Cc1cc(-c2ccc(C(F)(F)F)cc2)cc(-c2cccc(-c3cccc(S(=O)(=O)NC(=O)C(C)C)c3)n2)n1 [Example 455, N-Isobutyryl-3-[6′-methyl-4′-(4-trifluoromethyl-phenyl)-[2,2′]bipyridinyl-6-yl]-benzenesulfonamide]
	204	NS(=O)(=O)c1cccc(-c2cccc(-c3nc(-c4ccc(C(F)(F)F)cc4)cc(C(F)F)n3)c2)c1 [Example 456, 3′-[4-Difluoromethyl-6-(4-trifluoromethyl-phenyl)-pyrimidin-2-yl]-biphenyl-3-sulfonic acid amide]
	233.5	NS(=O)(=O)c1cccc(-c2cc(-c3nc(-c4ccc(C(F)(F)F)cc4)cc(C(F)F)n3)ccn2)c1 [Example 457, 3-{4-[4-Difluoromethyl-6-(4-trifluoromethyl-phenyl)-pyrimidin-2-yl]-pyridin-2-yl}-benzenesulfonamide]
	242	NS(=O)(=O)c1ccc(-c2cc(-c3nc(-c4ccc(C(F)(F)F)cc4)cc(C(F)F)n3)ccn2)s1 [Example 458, 5-{4-[4-Difluoromethyl-6-(4-trifluoromethyl-phenyl)-pyrimidin-2-yl]-pyridin-2-yl}-thiophene-2-sulfonic acid amide]
	240.5	NS(=O)(=O)c1ccc(-c2cccc(-c3nc(-c4ccc(C(F)(F)F)cc4)cc(C(F)F)n3)c2)s1 [Example 459, 5-{3-[4-Difluoromethyl-6-(4-trifluoromethyl-phenyl)-pyrimidin-2-yl]-phenyl}-thiophene-2-sulfonic acid amide]
	227.5	NS(=O)(=O)c1cccc(-c2cccc(-c3nc(-c4ccc(C(F)(F)F)c(F)c4)cc(C(F)(F)F)n3)c2)c1 [Example 460, 3′-[4-(3-Fluoro-4-trifluoromethyl-phenyl)-6-trifluoromethyl-pyrimidin-2-yl]-biphenyl-3-sulfonic acid amide]
	213.5	NS(=O)(=O)c1ccc(-c2cccc(-c3nc(-c4ccc(C(F)(F)F)c(F)c4)cc(C(F)(F)F)n3)c2)s1 [Example 461, 5-{3-[4-(3-Fluoro-4-trifluoromethyl-phenyl)-6-trifluoromethyl-pyrimidin-2-yl]-phenyl}-thiophene-2-sulfonic acid amide]
	188	COCC(=O)NS(=O)(=O)c1cccc(-c2cccc(-c3cc(-c4ccc(C(F)(F)F)cc4)cc(C)n3)n2)c1 [Example 462, N-(2-Methoxy-acetyl)-3-[6′-methyl-4′-(4-trifluoromethyl-phenyl)-[2,2′]bipyridinyl-6-yl]-benzenesulfonamide]

Structure (SMILES)	pKi (rat mGlu2 receptor)	melting point [°C]
Cc1cc(-c2ccc(C(F)(F)F)cc2)cc(-c2cccc(-c3cccc(NS(=O)(=O)NC(=O)OC(C)(C)C)c3)n2)n1 [Example 334, N-(tert-Butoxycarbonyl)-N′-{3-[6′-methyl-4′-(4-trifluoromethyl-phenyl)-[2,2′]bipyridinyl-6-yl]-phenyl}-sulfamide]	7.96	
